Test results published in patent US6043217A, “Amide derivative of amythiamicin” (Zaidan Hojin Biseibutsu Kagaku Kenyu Kai, priority 1996, dated 2000).

What was measured:
[1] = background statement on known amythiamicins; cited from earlier work
[2] = tested on: Staphylococcus aureus MS 15009/pMS 98; assay: MIC, standard serial dilution method; assay type: cell-based; conditions: Muller-Hinton agar medium, 37° C.
Protocol: (§1) The antibacterial activities of the amythiamicin amide derivative of the general formula (I) according to this invention are now concretely described. Compounds No. 1 to No. 11 according to this invention, which were respectively prepared in Examples 1 to 11 hereinafter given, were tested as the test compounds for their minimum inhibitory concentrations (MIC.) (μg/ml) against growth of a variety of test microorganisms by a standard serial dilution method. In the tests, the incubation medium used was Muller-Hinton agar medium and the incubation temperature was 37° C. The test results are shown as antibacterial spectra in the following Tables 2 and 3.

[3] = tested on: Staphylococcus aureus MS 15009/pMS 99; assay: MIC, standard serial dilution method; assay type: cell-based; conditions: Muller-Hinton agar medium, 37° C.
Protocol: as §1

[4] = tested on: Klebsiella pneumonia PCI 602; assay: MIC, standard serial dilution method; assay type: cell-based; conditions: Klebsiella pneumonia PCI 602 (Table 3); Muller-Hinton agar medium, 37° C.
[5] = tested on: Staphylococcus aureus 209P JC-1; assay: MIC, standard serial dilution method; assay type: cell-based; conditions: Muller-Hinton agar medium, 37° C.
[6] = tested on: Staphylococcus aureus M 133; assay: MIC, standard serial dilution method; assay type: cell-based; conditions: Muller-Hinton agar medium, 37° C.
[7] = tested on: Staphylococcus aureus M 126; assay: MIC, standard serial dilution method; assay type: cell-based; conditions: Muller-Hinton agar medium, 37° C.
[8] = tested on: Staphylococcus aureus MS 15026; assay: MIC, standard serial dilution method; assay type: cell-based; conditions: Muller-Hinton agar medium, 37° C.
[9] = tested on: Staphylococcus aureus MS 15027; assay: MIC, standard serial dilution method; assay type: cell-based; conditions: Muller-Hinton agar medium, 37° C.
[10] = tested on: Staphylococcus epidermidis ATCC 14990; assay: MIC, standard serial dilution method; assay type: cell-based; conditions: Muller-Hinton agar medium, 37° C.
[11] = tested on: Micrococcus luteus ATCC 9341; assay: MIC, standard serial dilution method; assay type: cell-based; conditions: Muller-Hinton agar medium, 37° C.
[12] = tested on: Enterobacterium faecalis W-73; assay: MIC, standard serial dilution method; assay type: cell-based; conditions: Muller-Hinton agar medium, 37° C.
[13] = tested on: Escherichia coli NIHJ JC-2; assay: MIC, standard serial dilution method; assay type: cell-based; conditions: Muller-Hinton agar medium, 37° C.
[14] = tested on: Streptococcus pneumoniae IP 692; assay: MIC, standard serial dilution method; assay type: cell-based; conditions: Muller-Hinton agar medium, 37° C.
[15] = tested on: Streptococcus pneumoniae Type 1; assay: MIC, standard serial dilution method; assay type: cell-based; conditions: Muller-Hinton agar medium, 37° C.
[16] = tested on: Streptococcus pyogenes Cook; assay: MIC, standard serial dilution method; assay type: cell-based; conditions: Muller-Hinton agar medium, 37° C.
[17] = tested on: Branhamella catarrhalis W-0500; assay: MIC, standard serial dilution method; assay type: cell-based; conditions: Muller-Hinton agar medium, 37° C.
[18] = tested on: Branhamella catarrhalis W-0506; assay: MIC, standard serial dilution method; assay type: cell-based; conditions: Muller-Hinton agar medium, 37° C.
[19] = tested on: Haemophilus influenzae 9334; assay: MIC, standard serial dilution method; assay type: cell-based; conditions: Muller-Hinton agar medium, 37° C.
[20] = tested on: Haemophilus influenzae Type b; assay: MIC, standard serial dilution method; assay type: cell-based; conditions: Muller-Hinton agar medium, 37° C.

Compound: CNC(=O)CC1NC(=O)c2csc(n2)-c2ccc(-c3nc(C(=O)OC)cs3)nc2-c2csc(n2)-c2csc(n2)C(C(C)C)NC(=O)CNC(=O)c2csc(n2)C(C(C)C)NC(=O)c2nc1sc2C (centres unmarked) [Amythiamicin D]
- solubility in water [1]: hardly soluble in water

Compound: CCCCNC(=O)c1csc(-c2ccc3c(n2)-c2csc(n2)-c2csc(n2)C(C(C)C)NC(=O)CNC(=O)c2csc(n2)C(C(C)C)NC(=O)c2nc(sc2C)C(CC(=O)NC)NC(=O)c2csc-3n2)n1 (centres unmarked) [Compound No. 8]
- Minimum growth inhibitory concentrations (MIC.) [2]: > 100 µg/mL
- Minimum growth inhibitory concentrations (MIC.) [3]: > 100 µg/mL
- Minimum growth inhibitory concentrations (MIC.) [4]: > 100 µg/mL
- Minimum growth inhibitory concentrations (MIC.) [5]: > 100 µg/mL
- Minimum growth inhibitory concentrations (MIC.) [6]: > 100 µg/mL
- Minimum growth inhibitory concentrations (MIC.) [7]: > 100 µg/mL
- Minimum growth inhibitory concentrations (MIC.) [8]: > 100 µg/mL
- Minimum growth inhibitory concentrations (MIC.) [9]: > 100 µg/mL
- Minimum growth inhibitory concentrations (MIC.) [10]: > 100 µg/mL
- Minimum growth inhibitory concentrations (MIC.) [11]: 1.56 µg/mL
- Minimum growth inhibitory concentrations (MIC.) [12]: > 100 µg/mL
- Minimum growth inhibitory concentrations (MIC.) [13]: > 100 µg/mL
- Minimum growth inhibitory concentrations (MIC.) [14]: > 100 µg/mL
- Minimum growth inhibitory concentrations (MIC.) [15]: > 100 µg/mL
- Minimum growth inhibitory concentrations (MIC.) [16]: > 100 µg/mL
- Minimum growth inhibitory concentrations (MIC.) [17]: > 100 µg/mL
- Minimum growth inhibitory concentrations (MIC.) [18]: > 100 µg/mL
- Minimum growth inhibitory concentrations (MIC.) [19]: > 100 µg/mL
- Minimum growth inhibitory concentrations (MIC.) [20]: > 100 µg/mL

Compound: CNC(=O)CC1NC(=O)c2csc(n2)-c2ccc(-c3nc(C(=O)NCCCO)cs3)nc2-c2csc(n2)-c2csc(n2)C(C(C)C)NC(=O)CNC(=O)c2csc(n2)C(C(C)C)NC(=O)c2nc1sc2C (centres unmarked) [Compound No. 9]
- Minimum growth inhibitory concentrations (MIC.) [2]: 0.39 µg/mL
- Minimum growth inhibitory concentrations (MIC.) [3]: 0.39 µg/mL
- Minimum growth inhibitory concentrations (MIC.) [4]: > 100 µg/mL
- Minimum growth inhibitory concentrations (MIC.) [5]: 0.39 µg/mL
- Minimum growth inhibitory concentrations (MIC.) [6]: 0.39 µg/mL
- Minimum growth inhibitory concentrations (MIC.) [7]: 0.39 µg/mL
- Minimum growth inhibitory concentrations (MIC.) [8]: 0.39 µg/mL
- Minimum growth inhibitory concentrations (MIC.) [9]: 0.39 µg/mL
- Minimum growth inhibitory concentrations (MIC.) [10]: 0.78 µg/mL
- Minimum growth inhibitory concentrations (MIC.) [11]: 0.20 µg/mL
- Minimum growth inhibitory concentrations (MIC.) [12]: 0.39 µg/mL
- Minimum growth inhibitory concentrations (MIC.) [13]: > 100 µg/mL
- Minimum growth inhibitory concentrations (MIC.) [14]: > 100 µg/mL
- Minimum growth inhibitory concentrations (MIC.) [15]: > 100 µg/mL
- Minimum growth inhibitory concentrations (MIC.) [16]: > 100 µg/mL
- Minimum growth inhibitory concentrations (MIC.) [17]: > 100 µg/mL
- Minimum growth inhibitory concentrations (MIC.) [18]: > 100 µg/mL
- Minimum growth inhibitory concentrations (MIC.) [19]: > 100 µg/mL
- Minimum growth inhibitory concentrations (MIC.) [20]: > 100 µg/mL

Compound: CNC(=O)CC1NC(=O)c2csc(n2)-c2ccc(-c3nc(C(=O)N[C@@H](CCCNC(=N)N)C(=O)O)cs3)nc2-c2csc(n2)-c2csc(n2)C(C(C)C)NC(=O)CNC(=O)c2csc(n2)C(C(C)C)NC(=O)c2nc1sc2C (some centres unmarked) [Compound No. 10]
- Minimum growth inhibitory concentrations (MIC.) [2]: > 100 µg/mL
- Minimum growth inhibitory concentrations (MIC.) [3]: > 100 µg/mL
- Minimum growth inhibitory concentrations (MIC.) [4]: > 100 µg/mL
- Minimum growth inhibitory concentrations (MIC.) [5]: > 100 µg/mL
- Minimum growth inhibitory concentrations (MIC.) [6]: > 100 µg/mL
- Minimum growth inhibitory concentrations (MIC.) [7]: > 100 µg/mL
- Minimum growth inhibitory concentrations (MIC.) [8]: > 100 µg/mL
- Minimum growth inhibitory concentrations (MIC.) [9]: > 100 µg/mL
- Minimum growth inhibitory concentrations (MIC.) [10]: > 100 µg/mL
- Minimum growth inhibitory concentrations (MIC.) [11]: > 100 µg/mL
- Minimum growth inhibitory concentrations (MIC.) [12]: > 100 µg/mL
- Minimum growth inhibitory concentrations (MIC.) [13]: > 100 µg/mL
- Minimum growth inhibitory concentrations (MIC.) [14]: > 100 µg/mL
- Minimum growth inhibitory concentrations (MIC.) [15]: > 100 µg/mL
- Minimum growth inhibitory concentrations (MIC.) [16]: > 100 µg/mL
- Minimum growth inhibitory concentrations (MIC.) [17]: > 100 µg/mL
- Minimum growth inhibitory concentrations (MIC.) [18]: > 100 µg/mL
- Minimum growth inhibitory concentrations (MIC.) [19]: > 100 µg/mL
- Minimum growth inhibitory concentrations (MIC.) [20]: > 100 µg/mL

Compound: CNC(=O)CC1NC(=O)c2csc(n2)-c2ccc(-c3nc(C(=O)N[C@H](CO)CCCNC(=N)N)cs3)nc2-c2csc(n2)-c2csc(n2)C(C(C)C)NC(=O)CNC(=O)c2csc(n2)C(C(C)C)NC(=O)c2nc1sc2C (some centres unmarked) [Compound No. 11]
- Minimum growth inhibitory concentrations (MIC.) [2]: > 100 µg/mL
- Minimum growth inhibitory concentrations (MIC.) [3]: > 100 µg/mL
- Minimum growth inhibitory concentrations (MIC.) [4]: > 100 µg/mL
- Minimum growth inhibitory concentrations (MIC.) [5]: 6.25 µg/mL
- Minimum growth inhibitory concentrations (MIC.) [6]: > 100 µg/mL
- Minimum growth inhibitory concentrations (MIC.) [7]: > 100 µg/mL
- Minimum growth inhibitory concentrations (MIC.) [8]: > 100 µg/mL
- Minimum growth inhibitory concentrations (MIC.) [9]: > 100 µg/mL
- Minimum growth inhibitory concentrations (MIC.) [10]: > 100 µg/mL
- Minimum growth inhibitory concentrations (MIC.) [11]: 100 µg/mL
- Minimum growth inhibitory concentrations (MIC.) [12]: > 100 µg/mL
- Minimum growth inhibitory concentrations (MIC.) [13]: > 100 µg/mL
- Minimum growth inhibitory concentrations (MIC.) [14]: > 100 µg/mL
- Minimum growth inhibitory concentrations (MIC.) [15]: > 100 µg/mL
- Minimum growth inhibitory concentrations (MIC.) [16]: > 100 µg/mL
- Minimum growth inhibitory concentrations (MIC.) [17]: > 100 µg/mL
- Minimum growth inhibitory concentrations (MIC.) [18]: > 100 µg/mL
- Minimum growth inhibitory concentrations (MIC.) [19]: > 100 µg/mL
- Minimum growth inhibitory concentrations (MIC.) [20]: > 100 µg/mL
